Experimental data published in US9873709B2 (priority 2013, dated 2018).
Counter-ions that a name gives are not always drawn. Like-named read-outs stand apart in the source and are kept apart here.

Legend:
[1] = molecular target: isolated recombinant JAK2 kinase domain (Homo sapiens (Human), UniProt O60674); conditions: read-out: JAK2 Ki
[2] = system: JAK1-dependent STAT6 phosphorylation downstream of IL-13 stimulation in TF-1 human erythroleukemia cells; test: cells; conditions: TF-1, read-out: IL-13-pSTAT6 IC50
Description: Inhibitor potency (EC50) was determined in cell-based assays designed to measure JAK1 dependent STAT phosphorylation.
Prior to use in the assays, TF-1 cells were starved of GM-CSF overnight in OptiMEM medium (Life Technologies, Grand Island, N.Y.) supplemented with 0.5% charcoal/dextran stripped fetal bovine serum (FBS), 0.1 mM non-essential amino acids (NEAA), and 1 mM sodium pyruvate. The assays were run in 384-well plates in serum-free OptiMEM medium using 300,000 cells per well. In a second assay approach, BEAS-2B human bronchial epithelial cells obtained from ATCC were plated at 100,000 cells per well of a 96-well plate one day prior to the experiment. The BEAS-2B assay was run in complete growth medium (bronchial epithelial basal medium plus bulletkit; Lonza; Basel, Switzerland).
Test compounds were serially diluted 1:2 in DMSO and then diluted 1:50 in medium just before use. Diluted compounds were added to the cells, for a final DMSO concentration of 0.2%, and incubated for 30 min (for the TF-1 assay) or 1 hr (for the BEAS-2B assay) at 37° C. Then, cells were stimulated with human recombinant cytokine at their respective EC90 concentrations, as previously determined for each individual lot. […] The resultant samples were frozen in the plates at −80° C. Compound mediated inhibition of STAT6 phosphorylation was measured in the cell lysates using MesoScale Discovery (MSD) technology (Gaithersburg, Md.).

[3] = isolated recombinant JAK2 kinase domain, 25 μM ATP

Chain of isolated recombinant JAK2 kinase domain (O60674 849-1124): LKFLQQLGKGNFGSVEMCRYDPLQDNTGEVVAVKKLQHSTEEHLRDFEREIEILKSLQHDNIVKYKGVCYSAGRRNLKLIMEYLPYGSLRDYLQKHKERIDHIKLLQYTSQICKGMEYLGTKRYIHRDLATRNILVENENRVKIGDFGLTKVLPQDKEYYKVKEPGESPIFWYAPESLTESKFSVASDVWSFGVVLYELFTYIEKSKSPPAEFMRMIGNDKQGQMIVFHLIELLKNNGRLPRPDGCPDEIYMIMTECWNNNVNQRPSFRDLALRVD

Row | SMILES | Ki [1, 3] [nM] | also measured
1 | CN1CCC(N(C)C(=O)c2ccc(Nc3nc4c(N5CCC(O)CC5)cccn4n3)cc2)CC1 [Example 1-3, 4-[[8-(4-hydroxy-1-piperidyl)-[1,2,4]triazolo[1,5-a]pyridin-2-yl]amino]-N-methyl-N-(1-methyl-4-piperidyl)benzamide; hydrochloride] | 92.4 | –
2 | CN1CCC(N(C)C(=O)c2ccc(Nc3nc4c(N5CCC(O)(c6cccc(C#N)c6)CC5)cccn4n3)cc2)CC1 [Example 1-22, 4-[[8-[4-(3-cyanophenyl)-4-hydroxy-1-piperidyl]-[1,2,4]triazolo[1,5-a]pyridin-2-yl]amino]-N-methyl-N-(1-methyl-4-piperidyl)benzamide] | 32.1 | –
3 | CN1CCC(N(C)C(=O)c2ccc(Nc3nc4c(Oc5ccccc5)cccn4n3)cc2)CC1 [Example 1-248, N-Methyl-N-(1-methyl-piperidin-4-yl)-4-(8-phenoxy-[1,2,4]triazolo[1,5-a]pyridine-2-ylamino)-benzamide] | – | Ki [1]: 22.1 nM
4 | CN1CCC(N(C)C(=O)c2ccc(Nc3nc4c(N5CC=C(c6ccccc6)CCC5)cccn4n3)cc2)CC1 [Example 1-15, N-methyl-N-(1-methyl-4-piperidyl)-4-[[8-(5-phenyl-2,3,4,7-tetrahydroazepin-1-yl)-[1,2,4]triazolo[1,5-a]pyridin-2-yl]amino]benzamide] | 12.2 | –
5 | CN1CCC(N(C)C(=O)c2ccc(Nc3nc4c(N5CC=C(c6ccccc6)CC5)cccn4n3)cc2)CC1 [Example 1-4, N-methyl-N-(1-methyl-4-piperidyl)-4-[[8-(4-phenyl-3,6-dihydro-2H-pyridin-1-yl)-[1,2,4]triazolo[1,5-a]pyridin-2-yl]amino]benzamide] | 12.4 | –
6 | CN1CCC(N(C)C(=O)c2ccc(Nc3nc4c(Oc5ccc6oc(=O)n(Cc7ccccc7)c6c5)cccn4n3)cc2)CC1 [Example 1-264, 4-([8-[(3-benzyl-2-oxo-2,3-dihydro-1,3-benzoxazol-5-yl)oxy]-[1,2,4]triazolo[1,5-a]pyridin-2-yl]amino)-N-methyl-N-(1-methylpiperidin-4-yl)benzamide] | – | Ki [1]: 121 nM
7 | CN1CCC(N(C)C(=O)c2ccc(Nc3nc4c(N5CCC6(CNC(=O)O6)C5)cccn4n3)cc2)CC1 (centres unmarked) [Example 1-24, N-methyl-N-(1-methyl-4-piperidyl)-4-[[8-(2-oxo-1-oxa-3,7-diazaspiro[4.4]nonan-7-yl)-[1,2,4]triazolo[1,5-a]pyridin-2-yl]amino]benzamide] | 19.1 | –
8 | CN1CCC(N(C)C(=O)c2ccc(Nc3nc4c(N5CCC(O)(C6CCCCC6)CC5)cccn4n3)cc2)CC1 [Example 1-2, 4-[[8-(4-cyclohexyl-4-hydroxy-1-piperidyl)-[1,2,4]triazolo[1,5-a]pyridin-2-yl]amino]-N-methyl-N-(1-methyl-4-piperidyl)benzamide] | 14.2 | –
9 | CC(=O)NC1(C)CCN(c2cccn3nc(Nc4ccc(C(=O)N(C)C5CCN(C)CC5)cc4)nc23)CC1 [Example 1-260, 4-[[8-(4-acetamido-4-methylpiperidin-1-yl)-[1,2,4]-triazolo[1,5-a]pyridin-2-yl]amino]-N-methyl-N-(1-methylpiperidin-4-yl)benzamide] | 16.3 | –
10 | CN1CCC(N(C)C(=O)c2ccc(Nc3nc4c(N5CCC(C)(C(=O)NCc6ccccc6)CC5)cccn4n3)cc2)CC1 [Example 1-259, N-benzyl-4-methyl-1-[2-[4-[methyl-(1-methyl-4-piperidyl)carbamoyl]anilino]-[1,2,4]triazolo[1,5-a]pyridin-8-yl]piperidine-4-carboxamide] | 10.7 | –
11 | CN1CCC(N(C)C(=O)c2ccc(Nc3nc4c(N5CCC(C(=O)N6CC(C)(C)C6)CC5)cccn4n3)cc2)CC1 [Example 1-42, 4-{8-[4-(3,3-Dimethyl-azetidine-1-carbonyl)-piperidin-1-yl]-1,8a-dihydro [1,2,4]triazolo[1,5a]pyridine-2-ylamino}-N-methyl-N-(1-methyl-piperidin-4-yl)-benzamide] | 1090 | –
12 | CN1CCC(N(C)C(=O)c2ccc(Nc3nc4c(N5CCC(C#N)(c6ccccc6)CC5)cccn4n3)cc2)CC1 [Example 1-45, 4-[[8-(4-cyano-4-phenyl-1-piperidyl)-[1,2,4]triazolo[1,5-a]pyridin-2-yl]amino]-N-methyl-N-(1-methyl-4-piperidyl)benzamide] | 20.4 | –
13 | CN1CCC(N(C)C(=O)c2ccc(Nc3nc4c(N5CCC(O)(c6ccncc6)CC5)cccn4n3)cc2)CC1 [Example 1-20, 4-[[8-[4-hydroxy-4-(4-pyridyl)-1-piperidyl]-[1,2,4]triazolo[1,5-a]pyridin-2-yl]amino]-N-methyl-N-(1-methyl-4-piperidyl)benzamide] | 36.8 | –
14 | CN1CCC(N(C)C(=O)c2ccc(Nc3nc4c(N5CCC(C)(O)CC5)cccn4n3)cc2)CC1 [Example 1-6, 4-[[8-(4-hydroxy-4-methyl-1-piperidyl)-[1,2,4]triazolo[1,5-a]pyridin-2-yl]amino]-N-methyl-N-(1-methyl-4-piperidyl)benzamide; hydrochloride] | 39.9 | –
15 | CN1CCC(N(C)C(=O)c2ccc(Nc3nc4c(N5CCC(CC#N)(C6CCCC6)CC5)cccn4n3)cc2)CC1 [Example 1-257, 4-([8-[4-(cyanomethyl)-4-cyclopentylpiperidin-1-yl]-[1,2,4]triazolo[1,5-a]pyridin-2-yl]amino)-N-methyl-N-(1-methylpiperidin-4-yl)benzamide] | 2.34 | –
16 | CN1CCC(N(C)C(=O)c2ccc(Nc3nc4c(N5CCC(O)(c6ccccc6Cl)CC5)cccn4n3)cc2)CC1 [Example 1-35, 4-[[8-[4-(2-chlorophenyl)-4-hydroxy-1-piperidyl]-[1,2,4]triazolo[1,5-a]pyridin-2-yl]amino]-N-methyl-N-(1-methyl-4-piperidyl)benzamide] | 27.7 | –
17 | CN1CCC(N(C)C(=O)c2ccc(Nc3nc4c(N5CCN6C(=O)COC[C@H]6C5)cccn4n3)cc2)CC1 [Example 1-33, 4-[[8-[(9aR)-4-oxo-6,7,9,9a-tetrahydro-1H-pyrazino[2,1-c][1,4]oxazin-8-yl]-[1,2,4]triazolo[1,5-a]pyridin-2-yl]amino]-N-methyl-N-(1-methyl-4-piperidyl)benzamide] | 38.7 | –
18 | CN1CCC(N(C)C(=O)c2ccc(Nc3nc4c(N5CCC(C)(N(C)S(=O)(=O)c6ccccc6)CC5)cccn4n3)cc2)CC1 [Example 1-261] | 3.56 | –
19 | O=C(c1ccc(Nc2nc3c(N4CCC(O)(c5ccc(Cl)cc5)CC4)cccn3n2)cc1)N1CCN(c2ccccn2)CC1 [Example 1-112, [4-[[8-[4-(4-chlorophenyl)-4-hydroxy-1-piperidyl]-[1,2,4]triazolo[1,5-a]pyridin-2-yl]amino]phenyl]-[4-(2-pyridyl)piperazin-1-yl]methanone] | 3.8 | –
20 | NCC1(c2ccccc2)CCN(c2cccn3nc(NC(=O)C4CC4)nc23)CC1 [Example 3-1, N-[8-[4-(aminomethyl)-4-phenyl-1-piperidyl]-[1,2,4]triazolo[1,5-a]pyridin-2-yl]cyclopropane carboxamide; hydrochloride] | 145 | –
21 | Cc1ccc(C2(O)CCN(c3cccn4nc(Nc5ccc(C(=O)N(C)C6CCN(C)CC6)cc5)nc34)CC2)cc1 [Example 1-39, 4-[[8-[4-hydroxy-4-(p-tolyl)-1-piperidyl]-[1,2,4]triazolo[1,5-a]pyridin-2-yl]amino]-N-methyl-N-(1-methyl-4-piperidyl)benzamide] | 3.52 | –
22 | CN1CCC(N(C)C(=O)c2ccc(Nc3nc4c(N5CCC(C)(NS(=O)(=O)c6ccccc6)CC5)cccn4n3)cc2)CC1 [Example 1-303, 4-[[8-[4-(benzenesulfonamido)-4-methyl-1-piperidyl]-[1,2,4]triazolo[1,5-a]pyridin-2-yl]amino]-N-methyl-N-(1-methyl-4-piperidyl)benzamide] | 4.98 | –
23 | CN1CCC(N(C)C(=O)c2ccc(Nc3nc4c(N5CCC(F)(c6ccccc6)CC5)cccn4n3)cc2)CC1 [Example 1-16, 4-[[8-(4-fluoro-4-phenyl-1-piperidyl)-[1,2,4]triazolo[1,5-a]pyridin-2-yl]amino]-N-methyl-N-(1-methyl-4-piperidyl)benzamide] | 25.5 | –
24 | CN1CCC(N(C)C(=O)c2ccc(Nc3nc4c(N5CCC6(CC5)CNC(=O)O6)cccn4n3)cc2)CC1 [Example 1-28, N-methyl-N-(1-methyl-4-piperidyl)-4-[[8-(2-oxo-1-oxa-3,8-diazaspiro[4.5]decan-8-yl)-[1,2,4]triazolo[1,5-a]pyridin-2-yl]amino]benzamide] | 8.21 | –
25 | CN1CCC(N(C)C(=O)c2ccc(Nc3nc4c(N5CCCC(O)(c6ccccc6)CC5)cccn4n3)cc2)CC1 (centres unmarked) [Example 1-7, 4-[[8-(4-hydroxy-4-phenyl-azepan-1-yl)-[1,2,4]triazolo[1,5-a]pyridin-2-yl]amino]-N-methyl-N-(1-methyl-4-piperidyl)benzamide] | 6.51 | –
26 | CN1CCC(N(C)C(=O)c2ccc(Nc3nc4c(N5CCC(C)(NC(=O)c6ccccc6)CC5)cccn4n3)cc2)CC1 [Example 1-302, 4-[[8-(4-benzamido-4-methyl-1-piperidyl)-[1,2,4]triazolo[1,5-a]pyridin-2-yl]amino]-N-methyl-N-(1-methyl-4-piperidyl)benzamide] | 6.37 | –
27 | CN1CCC2(C1)CN(C(=O)c1ccc(Nc3nc4c(N5CCC(O)(c6ccc(Cl)cc6)CC5)cccn4n3)cc1)C2 [Example 1-59, [4-[[8-[4-(4-chlorophenyl)-4-hydroxy-1-piperidyl]-[1,2,4]triazolo[1,5-a]pyridin-2-yl]amino]phenyl]-(7-methyl-2,7-diazaspiro[3.4]octan-2-yl)methanone] | – | IC50 [2]: 15.5 nM
28 | O=C(CCC(F)(F)F)N1CC=C(c2cccn3nc(Nc4ccc(C(=O)N5CCC(Cc6cccnc6)CC5)cc4)nc23)CC1 [Example 2-277, 4,4,4-trifluoro-1-[4-[2-[4-[4-(3-pyridylmethyl)piperidine-1-carbonyl]anilino]-[1,2,4]triazolo[1,5-a]pyridin-8-yl]-3,6-dihydro-2H-pyridin-1-yl]butan-1-one] | – | IC50 [2]: 19.8 nM
29 | CN1CCC(N(C)C(=O)c2ccc(Nc3nc4c(C5=CCN(C(=O)OC6CCOC6)CC5)cccn4n3)cc2)CC1 (centres unmarked) [Example 2-346, tetrahydrofuran-3-yl 4-[2-[4-[methyl-(1-methyl-4-piperidyl)carbamoyl]anilino]-[1,2,4]triazolo[1,5-a]pyridin-8-yl]-3,6-dihydro-2H-pyridine-1-carboxylate] | – | IC50 [2]: 89.1 nM
